Biological target: T1, rabbit muscle glycogen phosphorylase b (RMGPb) (Oryctolagus cuniculus, UniProt P00489)
T1 construct: gene PYGM
T1 sequence (P00489 2-843): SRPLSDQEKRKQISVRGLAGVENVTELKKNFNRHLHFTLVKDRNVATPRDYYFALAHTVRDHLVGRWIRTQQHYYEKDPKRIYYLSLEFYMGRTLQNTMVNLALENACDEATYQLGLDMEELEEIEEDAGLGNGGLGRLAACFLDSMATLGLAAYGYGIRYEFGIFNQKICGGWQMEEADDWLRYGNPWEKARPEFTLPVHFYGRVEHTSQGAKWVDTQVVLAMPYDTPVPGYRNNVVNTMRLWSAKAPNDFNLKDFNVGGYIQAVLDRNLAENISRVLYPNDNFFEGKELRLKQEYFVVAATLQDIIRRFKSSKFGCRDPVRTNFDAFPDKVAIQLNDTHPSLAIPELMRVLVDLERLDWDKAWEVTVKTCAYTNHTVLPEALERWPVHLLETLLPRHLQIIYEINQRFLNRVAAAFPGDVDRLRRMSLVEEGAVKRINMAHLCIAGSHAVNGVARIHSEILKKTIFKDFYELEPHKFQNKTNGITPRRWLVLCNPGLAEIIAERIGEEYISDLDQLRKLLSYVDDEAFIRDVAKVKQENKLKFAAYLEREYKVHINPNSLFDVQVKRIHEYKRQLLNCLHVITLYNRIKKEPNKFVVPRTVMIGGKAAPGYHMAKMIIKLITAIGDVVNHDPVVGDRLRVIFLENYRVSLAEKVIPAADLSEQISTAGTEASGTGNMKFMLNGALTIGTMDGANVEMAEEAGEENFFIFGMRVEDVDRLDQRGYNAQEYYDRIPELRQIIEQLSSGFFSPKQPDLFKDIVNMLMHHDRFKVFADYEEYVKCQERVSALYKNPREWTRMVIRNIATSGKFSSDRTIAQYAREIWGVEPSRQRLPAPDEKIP
Assay: enzyme kinetics in the direction of glycogen synthesis with purified, recrystallized RMGPb ([…] AMP, […] glycogen)
Assay type: biochemical
Details: read-out: % inhibition at 1 mM

O=c1cc2n(c(=O)[nH]1)[C@]1(OC2)O[C@H](CO)[C@@H](O)[C@H](O)[C@H]1O [4a, (3R,3′R,4′S,5′S,6′R)-3′,4′,5′-Trihydroxy-6′-(hydroxymethyl)-3′,4′,5′,6′-tetrahydrospiro[oxazolo[3,4-c]pyrimidine-3,2′-pyran]-5,7(1H,6H)-dione]
inhibition at 1000 µM: 26%

O=c1cc2n(c(=O)[nH]1)[C@@]1(OC2)O[C@H](CO)[C@@H](O)[C@H](O)[C@H]1O [4b, (3S,3′R,4′S,5′S,6′R)-3′,4′,5′-Trihydroxy-6′-(hydroxymethyl)-3′,4′,5′,6′-tetrahydrospiro[oxazolo[3,4-c]pyrimidine-3,2′-pyran]-5,7(1H,6H)-dione]
inhibition at 1000 µM: 35%
